Data taken from paper PMC11079024, “Identification of a family of species-selective complex I inhibitors as potential anthelmintics” (Nature Communications, 2024).

Tested on: anthelmintic/nematicide-resistant C. elegans mutant strains
Assay: microbe, parasite or virus in culture
From the text: In addition to the Caenorhabditis elegans wild-type N2 strain, this work included the following C. elegans strains: CB1003 (kynu-1(e1003) X); anthelmintic-resistant strains—CB3474 (ben-1(e1880) III), CB193 (unc-29(e193) I), HY496 (bre-1(ye4) IV), RB2119 (acr-23(ok2804) V), JD608 (avr-14(ad1302) I; avr-15(ad1051) V; glc-1 (pk54) V), NM1968 (slo-1(js379) V), RP2635 (mev-1(tr355) III); benzimidazole-resistant CRISPR strains—ECA882 (ben-1(ean64) III), ECA917 (ben-1(ean98) III), ECA1075 (ben-1(ean143) III), ECA1080 (ben-1(ean148) III). This work also featured several additional free-living nematode strains: C. briggsae strain AF16, P. pacificus strain PS312, and P. hermaphrodita strain B178. The four CRISPR-generated benzimidazole-resistant C. elegans mutants were generously provided by Prof. Erik Andersen (Johns Hopkins University); PS312 and B178 were generously provided by Prof. Peter Roy (University of Toronto); all other strains were obtained from the Caenorhabditis Genetics Center (CGC, University of Minnesota). All strains were cultured and propagated at 20 °C on NGM (nematode growth medium) agar plates seeded with E. coli OP50 (Stiernagle, 2006)[56].
Liquid development and viability assays were adapted from a previously established chemical screening protocol (Burns et al.)[24]. In brief, a saturated culture of E. coli HB101 was concentrated 2-fold in liquid NGM and 40 μL of this suspension was distributed to each well of a 96-well flat-bottom culture plate. 0.5 μL chemical solution (or DMSO alone) was added to each well (1% DMSO v/v) using either a multi-channel pipette or a pinning tool (V&P Scientific). L1 worms synchronized from an embryo preparation performed the day prior were diluted to a concentration of ~2 worms/μL in M9 buffer; 10 μL worm suspension was then added to each well. Culture plates were sealed with parafilm and placed in a plastic container lined with wet paper towels to prevent evaporation. Containers were then incubated for 6 days at 20 °C with shaking at 165 rpm. Following incubation, 300 μL M9 was added to each well to decrease the turbidity of the HB101-NGM suspension. Single images of each microplate well were then taken on a Nikon Ti Eclipse inverted microscope (Nikon NIS Elements AR). Images were processed using Python scripts to isolate worm-associated pixels from background. Scores of worm development and viability were determined as the sum of worm-associated pixels in each well. Development/viability scores for each well were divided by the development /viability scores for the corresponding DMSO controls, resulting in a relative viability value for each chemical. At least three biological replicates were performed for each dose-response experiment; relative viability values were averaged across replicates.
Supplementary Table 2. Sensitivity of anthelmintic/nematicide-resistant strains to Class A, B, and C
benzimidazole complex I inhibitors.
LC50s were estimated from fitted dose-
response curves; all dose response data are the mean of at least three biological replicates.
Supplementary Table 2. Davie et al.

SMILES: COC(=O)Nc1nc2ccc(Sc3ccccc3)cc2[nH]1 [fenbendazole, reference compound]
- C. elegans L1 relative development & viability (score 0-1 relative to DMSO controls) (1 µM, strain CB3474, G104D (ben-1)): 1.000
- C. elegans L1 relative development & viability (score 0-1 relative to DMSO controls) (1 µM, strain ECA917, F200Y (ben-1)): 1.000
- C. elegans L1 relative development & viability (score 0-1 relative to DMSO controls) (1 µM, strain ECA1075, F167Y (ben-1)): 1.000
- C. elegans L1 relative development & viability (score 0-1 relative to DMSO controls) (1 µM, strain ECA1080, E198A (ben-1)): 1.000
- C. elegans L1 relative development & viability (score 0-1 relative to DMSO controls) (2 µM, strain CB3474, G104D (ben-1)): 1.000
- C. elegans L1 relative development & viability (score 0-1 relative to DMSO controls) (2 µM, strain ECA917, F200Y (ben-1)): 1.000
- C. elegans L1 relative development & viability (score 0-1 relative to DMSO controls) (2 µM, strain ECA1075, F167Y (ben-1)): 1.000
- C. elegans L1 relative development & viability (score 0-1 relative to DMSO controls) (2 µM, strain ECA1080, E198A (ben-1)): 1.000
- C. elegans L1 relative development & viability (score 0-1 relative to DMSO controls) (3.9 µM, strain CB3474, G104D (ben-1)): 1.000
- C. elegans L1 relative development & viability (score 0-1 relative to DMSO controls) (3.9 µM, strain ECA917, F200Y (ben-1)): 1.000
- C. elegans L1 relative development & viability (score 0-1 relative to DMSO controls) (3.9 µM, strain ECA1075, F167Y (ben-1)): 1.000
- C. elegans L1 relative development & viability (score 0-1 relative to DMSO controls) (3.9 µM, strain ECA1080, E198A (ben-1)): 1.000
- C. elegans L1 relative development & viability (score 0-1 relative to DMSO controls) (15.6 µM, strain CB3474, G104D (ben-1)): 1.000
- C. elegans L1 relative development & viability (score 0-1 relative to DMSO controls) (15.6 µM, strain ECA917, F200Y (ben-1)): 1.000
- C. elegans L1 relative development & viability (score 0-1 relative to DMSO controls) (15.6 µM, strain ECA1075, F167Y (ben-1)): 1.000
- C. elegans L1 relative development & viability (score 0-1 relative to DMSO controls) (15.6 µM, strain ECA1080, E198A (ben-1)): 0.957
- C. elegans L1 relative development & viability (score 0-1 relative to DMSO controls) (31.3 µM, strain CB3474, G104D (ben-1)): 1.000
- C. elegans L1 relative development & viability (score 0-1 relative to DMSO controls) (31.3 µM, strain ECA917, F200Y (ben-1)): 1.000
- C. elegans L1 relative development & viability (score 0-1 relative to DMSO controls) (31.3 µM, strain ECA1075, F167Y (ben-1)): 1.000
- C. elegans L1 relative development & viability (score 0-1 relative to DMSO controls) (31.3 µM, strain ECA1080, E198A (ben-1)): 1.000
- C. elegans L1 relative development & viability (score 0-1 relative to DMSO controls) (62.5 µM, strain CB3474, G104D (ben-1)): 0.845
- C. elegans L1 relative development & viability (score 0-1 relative to DMSO controls) (62.5 µM, strain ECA917, F200Y (ben-1)): 1.000
- C. elegans L1 relative development & viability (score 0-1 relative to DMSO controls) (62.5 µM, strain ECA1075, F167Y (ben-1)): 0.934
- C. elegans L1 relative development & viability (score 0-1 relative to DMSO controls) (62.5 µM, strain ECA1080, E198A (ben-1)): 1.000
- C. elegans L1 relative development & viability (score 0-1 relative to DMSO controls) (125 µM, strain CB3474, G104D (ben-1)): 0.790
- C. elegans L1 relative development & viability (score 0-1 relative to DMSO controls) (125 µM, strain ECA917, F200Y (ben-1)): 0.784
- C. elegans L1 relative development & viability (score 0-1 relative to DMSO controls) (125 µM, strain ECA1075, F167Y (ben-1)): 0.665
- C. elegans L1 relative development & viability (score 0-1 relative to DMSO controls) (125 µM, strain ECA1080, E198A (ben-1)): 0.759
- C. elegans L1 relative development & viability (score 0-1 relative to DMSO controls) (250 µM, strain CB3474, G104D (ben-1)): 0.720
- C. elegans L1 relative development & viability (score 0-1 relative to DMSO controls) (250 µM, strain ECA917, F200Y (ben-1)): 0.835
- C. elegans L1 relative development & viability (score 0-1 relative to DMSO controls) (250 µM, strain ECA1075, F167Y (ben-1)): 0.796
- C. elegans L1 relative development & viability (score 0-1 relative to DMSO controls) (250 µM, strain ECA1080, E198A (ben-1)): 0.686
- C. elegans L1 relative development & viability (score 0-1 relative to DMSO controls) (500 µM, strain CB3474, G104D (ben-1)): 0.538
- C. elegans L1 relative development & viability (score 0-1 relative to DMSO controls) (500 µM, strain ECA917, F200Y (ben-1)): 0.716
- C. elegans L1 relative development & viability (score 0-1 relative to DMSO controls) (500 µM, strain ECA1075, F167Y (ben-1)): 0.599
- C. elegans L1 relative development & viability (score 0-1 relative to DMSO controls) (500 µM, strain ECA1080, E198A (ben-1)): 0.597
- C. elegans L1 relative development & viability (CB3474 G104D (ben-1), 1 µM, score 0-1 relative to DMSO, values >1 set to 1): 1.000
- C. elegans L1 relative development & viability (CB3474 G104D (ben-1), 2 µM, score 0-1 relative to DMSO, values >1 set to 1): 1.000
- C. elegans L1 relative development & viability (CB3474 G104D (ben-1), 3.9 µM, score 0-1 relative to DMSO, values >1 set to 1): 1.000
- C. elegans L1 relative development & viability (CB3474 G104D (ben-1), 15.6 µM, score 0-1 relative to DMSO, values >1 set to 1): 1.000
- C. elegans L1 relative development & viability (CB3474 G104D (ben-1), 31.3 µM, score 0-1 relative to DMSO, values >1 set to 1): 1.000
- C. elegans L1 relative development & viability (CB3474 G104D (ben-1), 62.5 µM, […]): 0.845
- C. elegans L1 relative development & viability (CB3474 G104D (ben-1), 125 µM, […]): 0.790
- C. elegans L1 relative development & viability (CB3474 G104D (ben-1), 250 µM, […]): 0.720
- C. elegans L1 relative development & viability (CB3474 G104D (ben-1), 500 µM, […]): 0.538
- C. elegans L1 relative development & viability (ECA917 F200Y (ben-1), 1 µM, score 0-1 relative to DMSO, values >1 set to 1): 1.000
- C. elegans L1 relative development & viability (ECA917 F200Y (ben-1), 2 µM, score 0-1 relative to DMSO, values >1 set to 1): 1.000
- C. elegans L1 relative development & viability (ECA917 F200Y (ben-1), 3.9 µM, score 0-1 relative to DMSO, values >1 set to 1): 1.000
- C. elegans L1 relative development & viability (ECA917 F200Y (ben-1), 15.6 µM, score 0-1 relative to DMSO, values >1 set to 1): 1.000
- C. elegans L1 relative development & viability (ECA917 F200Y (ben-1), 31.3 µM, score 0-1 relative to DMSO, values >1 set to 1): 1.000
- C. elegans L1 relative development & viability (ECA917 F200Y (ben-1), 62.5 µM, score 0-1 relative to DMSO, values >1 set to 1): 1.000
- C. elegans L1 relative development & viability (ECA917 F200Y (ben-1), 125 µM, […]): 0.784
- C. elegans L1 relative development & viability (ECA917 F200Y (ben-1), 250 µM, […]): 0.835
- C. elegans L1 relative development & viability (ECA917 F200Y (ben-1), 500 µM, […]): 0.716
- C. elegans L1 relative development & viability (ECA1075 F167Y (ben-1), 1 µM, score 0-1 relative to DMSO, values >1 set to 1): 1.000
- C. elegans L1 relative development & viability (ECA1075 F167Y (ben-1), 2 µM, score 0-1 relative to DMSO, values >1 set to 1): 1.000
- C. elegans L1 relative development & viability (ECA1075 F167Y (ben-1), 3.9 µM, score 0-1 relative to DMSO, values >1 set to 1): 1.000
- C. elegans L1 relative development & viability (ECA1075 F167Y (ben-1), 15.6 µM, score 0-1 relative to DMSO, values >1 set to 1): 1.000
- C. elegans L1 relative development & viability (ECA1075 F167Y (ben-1), 31.3 µM, score 0-1 relative to DMSO, values >1 set to 1): 1.000
- C. elegans L1 relative development & viability (ECA1075 F167Y (ben-1), 62.5 µM, […]): 0.934
- C. elegans L1 relative development & viability (ECA1075 F167Y (ben-1), 125 µM, […]): 0.665
- C. elegans L1 relative development & viability (ECA1075 F167Y (ben-1), 250 µM, […]): 0.796
- C. elegans L1 relative development & viability (ECA1075 F167Y (ben-1), 500 µM, […]): 0.599
- C. elegans L1 relative development & viability (ECA1080 E198A (ben-1), 1 µM, score 0-1 relative to DMSO, values >1 set to 1): 1.000
- C. elegans L1 relative development & viability (ECA1080 E198A (ben-1), 2 µM, score 0-1 relative to DMSO, values >1 set to 1): 1.000
- C. elegans L1 relative development & viability (ECA1080 E198A (ben-1), 3.9 µM, score 0-1 relative to DMSO, values >1 set to 1): 1.000
- C. elegans L1 relative development & viability (ECA1080 E198A (ben-1), 15.6 µM, […]): 0.957
- C. elegans L1 relative development & viability (ECA1080 E198A (ben-1), 31.3 µM, score 0-1 relative to DMSO, values >1 set to 1): 1.000
- C. elegans L1 relative development & viability (ECA1080 E198A (ben-1), 62.5 µM, score 0-1 relative to DMSO, values >1 set to 1): 1.000
- C. elegans L1 relative development & viability (ECA1080 E198A (ben-1), 125 µM, […]): 0.759
- C. elegans L1 relative development & viability (ECA1080 E198A (ben-1), 250 µM, […]): 0.686
- C. elegans L1 relative development & viability (ECA1080 E198A (ben-1), 500 µM, […]): 0.597
